Earlier results on one compound are cited in patent US12233082B2, “Compositions and methods for multi-use suppression and acquisition of viruses” (priority 2021, dated 2025).

The subject of one series is HIV-1. To be noted: 500 mg valacyclovir twice daily, 12 weeks, vs placebo.
The test system of the next series is HSV. The following applies: 500 mg valacyclovir; expected for group 2 from previous research.

As to `CC(C)[C@H](N)C(=O)OCCOCn1cnc2c(=O)[nH]c(N)nc21` [valacyclovir], in the series on HSV-2 (500 mg valacyclovir daily, N=39 vs placebo N=50, PCR detectable shedding), the “percentage of source partners with HSV-2 shedding in the genital tract (FIG. 1)” value was “decreased at a much quicker rate than those taking the placebo”. Further, the “risk of transmission of HSV-2” value in the series with HSV-2 (500 mg valacyclovir once daily, 8 months, source partners vs placebo) is “reduced the risk of transmission of HSV-2”. Also, in the series with HIV-1, the “reduction of HIV-1 viral load in plasma, on average” value is listed as 0.37 log10 copies/mL. The “HSV PCR detectability rate median” value in the series on HSV is 5% of days.
